Source: US20200254065A1, “LONG-ACTING GLP-2 ANALOGS” (OPKO Biologics Ltd., priority 2019, published 2020)
Square brackets hold non-standard residues; d marks the D form. Ends that are not written are not given here. Peptide text beside a SMILES is read from it. Nle = CCCC[C@H](N)C(=O)O

Key:
[1] = Stability of GLP-2 analogues on incubation at 37° C. (appearance, O.D. reading, RP-HPLC); format: physicochemical; conditions: following 48 h incubation at 37° C.; for Stability via RP-HPLC main peak: change of main peak
Protocol: The GLP-2 analogues were tested for stability via appearance, O.D. reading (A.280, and A.325) and RP-HPLC (purity, and peak area) following t=0, 1 day, and 48 h incubation at 37° C.

GLP-2 receptor = target: T1, GLP-2 receptor (Homo sapiens, UniProt O95838); assay: GLP-2 receptor Cell Based Assay (CBA)
T1 sequence (O95838 1-553): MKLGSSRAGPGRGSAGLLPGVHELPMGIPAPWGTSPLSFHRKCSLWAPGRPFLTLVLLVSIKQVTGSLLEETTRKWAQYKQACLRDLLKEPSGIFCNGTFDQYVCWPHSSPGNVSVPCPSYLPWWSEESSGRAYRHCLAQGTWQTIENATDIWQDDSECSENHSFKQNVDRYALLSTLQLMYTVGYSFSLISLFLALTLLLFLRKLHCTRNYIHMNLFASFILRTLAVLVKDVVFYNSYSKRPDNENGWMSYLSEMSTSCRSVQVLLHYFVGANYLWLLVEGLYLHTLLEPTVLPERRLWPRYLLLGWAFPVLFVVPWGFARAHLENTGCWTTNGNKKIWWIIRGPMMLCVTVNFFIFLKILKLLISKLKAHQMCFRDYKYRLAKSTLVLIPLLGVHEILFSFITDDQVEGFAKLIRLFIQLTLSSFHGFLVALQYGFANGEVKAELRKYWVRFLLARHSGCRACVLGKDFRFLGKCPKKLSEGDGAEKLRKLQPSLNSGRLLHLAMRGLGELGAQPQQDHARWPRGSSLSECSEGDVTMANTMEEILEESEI
Protocol: Evaluation of in vitro binding affinity of the different peptides was assessed by using Cell Based Assay (CBA) in the presence of escalating doses of the different peptides.

[2] = Table 8, average of 3 independent CBA

Row | Compound | Solubility via appearance [1] | Stability via RP-HPLC main peak [1] | also measured
1 | CCCC[C@H](NC(=O)[C@H](CCC(=O)O)NC(=O)[C@H](CC(=O)O)NC(=O)[C@H](CO)NC(=O)[C@H](Cc1ccccc1)NC(=O)[C@H](CO)NC(=O)CNC(=O)[C@H](CCC(=O)O)NC(=O)CNC(=O)[C@@H](N)Cc1c[nH]cn1)C(=O)N[C@H](Cc1ccccc1)C(=O)N[C@H](C(=O)N[C@H](C(=O)N[C@@H](CC(C)C)C(=O)N[C@@H](CC(=O)O)C(=O)N[C@@H](CC(C)C)C(=O)N[C@@H](CC(C)C)C(=O)N[C@@H](C)C(=O)N[C@@H](C)C(=O)N[C@@H](CCCNC(=N)N)C(=O)N[C@@H](CC(=O)O)C(=O)N[C@@H](Cc1ccccc1)C(=O)N[C@H](C(=O)N[C@@H](CC(N)=O)C(=O)N[C@@H](Cc1c[nH]c2ccccc12)C(=O)N[C@@H](CC(C)C)C(=O)N[C@H](C(=O)N[C@@H](CCC(N)=O)C(=O)N[C@H](C(=O)N[C@@H](CCCCN)C(=O)N[C@H](C(=O)N[C@H](C(=O)N[C@@H](CC(=O)O)C(N)=O)[C@@H](C)O)[C@@H](C)CC)[C@@H](C)O)[C@@H](C)CC)[C@@H](C)CC)[C@@H](C)CC)[C@@H](C)O [Variant 9] (H-HGEGSFSDE[Nle][dF]TILDLLAARDFINWLIQTKITD-NH2) | V9: clear | V9: −1.5% | 
2 | H-HGEGTFSSELATILDALAARDFIAWLIATKITDKKKKKK-NH2 [Variant 10, NH2-HG^2E^3GT^5FSS^8EL^10A^11TILDA^16LAAR20DFIA^24WLIA^28TKITDK^34K^35K^36K^37K^38K^39- NH2, reference compound] |  |  | EC50 Ratio to Teduglutide (GLP-2 receptor; [2]): 9.4; EC50 Ratio to Variant 4 (GLP-2 receptor; [2]): 5.3
3 | CCCC[C@H](NC(=O)[C@H](CCC(=O)O)NC(=O)[C@H](CC(=O)O)NC(=O)[C@H](CO)NC(=O)[C@H](Cc1ccccc1)NC(=O)[C@H](CO)NC(=O)CNC(=O)[C@H](CCC(=O)O)NC(=O)CNC(=O)[C@@H](N)Cc1c[nH]cn1)C(=O)N[C@H](Cc1ccccc1)C(=O)N[C@H](C(=O)N[C@H](C(=O)N[C@@H](CC(C)C)C(=O)N[C@@H](CC(=O)O)C(=O)N[C@@H](CC(N)=O)C(=O)N[C@@H](CC(C)C)C(=O)N[C@@H](C)C(=O)N[C@@H](C)C(=O)N[C@@H](CCCNC(=N)N)C(=O)N[C@@H](CC(=O)O)C(=O)N[C@@H](Cc1ccccc1)C(=O)N[C@H](C(=O)N[C@@H](CC(N)=O)C(=O)N[C@@H](Cc1c[nH]c2ccccc12)C(=O)N[C@@H](CC(C)C)C(=O)N[C@H](C(=O)N[C@@H](CCC(N)=O)C(=O)N[C@H](C(=O)N[C@@H](CCCCN)C(=O)N[C@H](C(=O)N[C@H](C(=O)N[C@@H](CC(=O)O)C(N)=O)[C@@H](C)O)[C@@H](C)CC)[C@@H](C)O)[C@@H](C)CC)[C@@H](C)CC)[C@@H](C)CC)[C@@H](C)O [Variant 2] (H-HGEGSFSDE[Nle][dF]TILDNLAARDFINWLIQTKITD-NH2) | V2: opaque | V2: −30% | EC50 Ratio to Teduglutide (GLP-2 receptor; Table 7): 6.4
4 | HGEGTFSSELATILDALAARDFIAWLIATKITDKKKKKK-NH2 [Variant 10, NH2-HG^2E^3GT^5FSS^8EL^10A^11TILDA^16LAAR20DFIA^24WLIA^28TKITDK^34K^35K^36K^37K^38K^39- NH2, reference compound] |  |  | EC50 (GLP-2 receptor; EC50 (nM) Average, average of 3 independent CBA, different GLP-2R Assay Kit lot (Table 8)): 5.4 nM
